Measurements reported in patent publication US12303479B2, “Chloride intracellular channel 1 for regulation of food intake” (The Regents of the University of California, priority 2019, dated 2025).

How the values were obtained:
Clic1 [1] = molecular target: Clic1 (Homo sapiens, UniProt O00299); conditions: cited from earlier work
Clic1 [2] = molecular target: T1, Clic1 (Mus musculus, UniProt Q9Z1Q5); assay: Fasting and re-feeding model: food intake and hypothalamic neuropeptide expression after acute IAA94; type: in vivo, mice; parameters: endogenous in cells; host or cells: whole live mice (C57B16 WT in the 7-day study); hypothalamus discussed as the site of action
Description: To determine whether the modulation of Clic1 directly affected food intake, mice were treated with a specific Clic1 inhibitor, IAA94^11. Mice were fasted for 23 hours and then treated with either vehicle or IAA94 (50 mg/kg IP) and then re-fed for 1 hour. […] No changes in AgRP or Cart expression were detected.
FIGS. 1A-1C show the role of Clic1 in food intake.
FIGS. 5A-5C show acute studies in which Clic1 inhibition decreases food intake. HET/KO mice are viable, fertile and appear normal. Floxed mice are available at PMID: 20049953 Sydney. […] Male mice were injected with IAA94 (50 mg/kg) or vehicle and then refed. IAA94 (indanyloxyacetic acid 94) is a Clic1 inhibitor that blocks channels and has enzymatic properties.

Clic1 [3] = molecular target: T1, Clic1; assay: Chronic IAA94 treatment in diet-induced obese mice, 23 days, alone or with Lira; type: in vivo; parameters: endogenous in cells; host or cells: whole live mice (C57B16 WT in the 7-day study); hypothalamus discussed as the site of action; conditions: daily injections, FIG. 8A
Description: FIGS. 8A-8I show another study on chronic IAA94 treatment. Diet-induced obese mice (fed a high fat diet for 6 weeks) received daily injections of either i) vehicle, ii) IAA94—10 mg/kg, iii) IAA94—50 mg/kg, iv) Lira, or v) combination of Lira+IAA94 (50 mg/kg). Daily food intake and body weight were monitored. Sacrifices were performed after 23 days.

Clic1 [4] = molecular target: T1, Clic1; assay: Chronic Clic1 inhibition in diet-induced obese high fat diet-fed mice, 7 days; type: in vivo, C57B16 WT mice; parameters: endogenous in cells; host or cells: whole live mice (C57B16 WT in the 7-day study); hypothalamus discussed as the site of action; conditions: IAA94 50 mg/kg IP daily
Description: Diet-induced obese mice (fed high fat diet for 6 weeks) were injected with IAA94 (50 mg/kg, IP, daily) or vehicle. Their daily food intake and body weight were monitored. Sacrifices were performed on day 7. […] On day 7 mice were fasted for 5 hours and then treated with IAA94 or VEH and then blood collected one hour later for measurement of leptin (FIG. 7C) GDF-15 (FIG. 7D) insulin (FIG. 7E), and glucose (FIG. 7F). FIGS. 7G-7J show hypothalamic neuropeptide levels determined by quantitative PCR detection. In FIGS. 7A-7B, P<0.05 repeated measures one-way ANOVA with Sidak's multiple comparisons test. In FIGS. 7C-7J, P<0.05 students t-test.

[5] = mice fasted 23 hours, IAA94 50 mg/kg IP, re-fed for 1 hour

Row | SMILES | inhibition of Clic1 (Clic1 [1]) | hyperphagia in response to refeeding (Clic1 [2]; IAA94 50 mg/kg, FIG. 1C) | food intake versus amount of IAA94 administered (Clic1 [2]; male mice, fasting and re-feeding model, FIG. 5C) | AgRP expression (hypothalamic) (Clic1 [2]; [5]) | Cart expression (hypothalamic) (Clic1 [2]; [5]) | Pome expression (hypothalamic) (Clic1 [2]; [5]) | hypothalamic levels of Npy (Clic1 [2]; [5]) | reduction of food intake compared with vehicle treated mice (Clic1 [2]; [5]) [%] | weight loss on chronic treatment (Clic1 [3]) | food intake (Clic1 [4]; 7 days) | reduction of body weight (Clic1 [4]; one week) [%]
1 | CN(C)C(=N)NC(=N)N [metformin, N,N-dimethylbiguanide] | inhibits Clic1 | – | – | – | – | – | – | – | – | – | –
2 | C[C@]1(C2CCCC2)Cc2cc(OCC(=O)O)c(Cl)c(Cl)c2C1=O [IAA94, R(+)-[(6,7-Dichloro-2-cyclopentyl-2,3-dihydro-2-methyl-1-oxo-1H-inden-5-yl)-oxy]acetic acid] | – | decreased hyperphagia | dose dependent | No changes | No changes | increased | significant reduction | ~50 | significant weight loss | significant reduction in food intake | ~12
